Data from patent US8524692B2, “Ocular compositions containing dioleoylphosphatidylglycerol and uses thereof” (Georgia Health Sciences University Research Institute, Inc., priority 2010, dated 2013).

Columns and labels:
[1] = test system: keratinocytes; details: concentrations from 0.1 to 1%; cited from earlier work
[2] = test system: keratinocytes; details: cited from earlier work
[3] = test system: PLD; details: acute stimulation, radiolabeled phosphatidylethanol production; cited from earlier work
[4] = test system: keratinocytes; assay: [3H]Thymidine incorporation into DNA in keratinocytes; type: cell-based; details: for promotion of proliferation in slowly dividing keratinocytes / inhibition of proliferation in rapidly dividing keratinocytes: 24 hours, PG species prepared by bath sonication, compared with egg phosphatidylglycerol
Experimental: Keratinocytes were treated for 24 hours with the indicated concentrations of different phosphatidylglycerol species, prepared via bath sonication of phospholipid in serum-free keratinocyte medium. [^3H]Thymidine incorporation into DNA was then determined in duplicate and averaged. All data were transformed prior to analyses to improve assumptions of normality and additivity for the models to be used. Experiments were grouped that had different responses to egg phosphatidylglycerol using finite mixture regression models and the flexmix package in R (1). This method clusters each experiment by the regression fit between In(CPM) and In(concentration), grouping cultures with similar regression lines in the same cluster. The number of clusters was determined using the Bayesian information criterion (BIC). A mixed model analysis of variance was used, conducted using the Proc Mixed procedure in SAS 9.13, separately for each of the grouped clusters to determine how the different phosphatidylglycerol species affected the relationship between cell proliferation and phosphatidylglycerol concentration. The model used for this analysis of variance included phosphatidylglycerol species as a fixed effect that potentially interacted with In(concentration), and random coefficients for each culture/experiment. The number of experiments segregating into each cluster are indicated and *p<0.05 versus the response to egg phosphatidylglycerol liposomes.
[^3H]Thymidine Incorporation Assays: [^3H]Thymidine incorporation into DNA is measured as described (62).
The effect of providing phosphatidylglycerol directly to keratinocytes in the form of liposomes was examined, since direct provision of phosphatidylglycerol itself should also trigger early differentiation. […] The egg phosphatidylglycerol used in these experiments is composed primarily of the dioleoyl and dipalmitoyl species; therefore, that there is no effect of dipalmitoyl-PP on DNA synthesis was also determined. On the other hand, if phosphatidylglycerol liposomes are applied to keratinocytes with decreased proliferative capacity, presumably as the result of contact inhibition (and as indicated by reduced [3H]thymidine incorporation into DNA under control conditions), DNA synthesis is stimulated in a dose-dependent manner, with a half-maximal effect at a concentration of approximately 35_g/mL and a maximal stimulation at 100 μg/mL.

[5] = test system: transformed human corneal epithelial cells; assay: Scratch wound closure assay in corneal epithelial cells; type: cell-based; details: 24 hours
Experimental: SV40-immortalized human corneal epithelial cells were cultured in a 1:1 mixture of defined keratinocyte serum free (dKSF) medium (Gibco) and minimum essential medium (Cellgro) until confluent. A pipet tip was then used to create a scratch wound in the confluent monolayer. Cells were rinsed with PBS to remove unattached and damaged cells and photographed under the microscope. The medium was replaced with dKSF containing the indicated additions (Ca corresponds to 1 mM Ca^2+). Cells were incubated for 24 hours and photographed again. Percent wound closure was calculated as the change in width of the scratch wound compared to the size of the initial wound and was expressed relative to the control (medium with no additions containing 90 μM Ca^2+); *p<0.05; **p<0.01 versus the control (n=3).
FIGS. 8A-8B show the effect of egg phosphatidylglycerol and dioleoylphosphatidylglycerol on wound closure in transformed human corneal epithelial cells. SV40-immortalized human corneal epithelial cells were cultured in a 1:1 mixture of defined keratinocyte serum free (dKSF) medium (Gibco) and minimum essential medium (Cellgro) until confluent. […] Percent wound closure was calculated as the change in width of the scratch wound compared to the size of the initial wound and was expressed relative to the control (medium with no additions); *p<0.05 versus the control (n=3). […]

[6] = test system: SV40-immortalized human corneal epithelial cells; assay: [3H]Thymidine incorporation into DNA in corneal epithelial cells; type: cell-based; details: 1 mM calcium versus control 90 μM, 24 hours
Experimental: [^3H]Thymidine incorporation into DNA was then determined. Values represent the means±SEM of 3 separate experiments performed in duplicate; *p<0.05, **p<0.01 versus the control value.
SV40-immortalized human corneal epithelial cells were cultured in a 1:1 mixture of defined keratinocyte serum free (dKSF) medium (Gibco) and minimum essential medium (Cellgro) until approximately 70% confluent. […] [^3H]Thymidine incorporation into DNA was then determined. Values represent the means±SEM of 4 separate experiments performed in duplicate; *p<0.01 versus the control value.
The cells are cultured in defined keratinocyte serum-free (dKSF) medium (Gibco) and passaged following trypsinization from the culture dish.

Compound: OC[C@@H](O)[C@@H](O)[C@H](O)[C@@H](O)CO [sorbitol]
- effect on DNA synthesis ([3H]thymidine incorporation) in keratinocytes [1]: little or no effect

Compound: CCCCCCCCCCCCCC(=O)O[C@@H]1[C@@H](C)[C@@]2(O)[C@@H](C=C(CO)C[C@]3(O)C(=O)C(C)=C[C@@H]23)[C@H]2C(C)(C)[C@]12OC(C)=O [TPA]
- radiolabeled phosphatidylglycerol levels ([2]; acute stimulation): no increase
- PLD activity [3]: activates PLD

Compound: CCCCCCCC/C=C\CCCCCCCC(=O)O[C@H](COC(=O)CCCCCCCCCCCCCCC)COP(=O)(O)OCC(O)CO (stereo partly drawn) [Palmitoyl, oleoyl-PG, palmitoyloleoylphosphatidylglycerol]
- promotion of proliferation in slowly dividing keratinocytes [4]: especially effective proproliferative

Compound: CCCCCCCC/C=C\CCCCCCCC(=O)OC[C@H](COP(=O)(O)OCC(O)CO)OC(=O)CCCCCCC/C=C\CCCCCCCC (stereo partly drawn) [dioleoylphosphatidylglycerol]
- promotion of proliferation in slowly dividing keratinocytes [4]: especially effective proproliferative
- wound closure ([5]; 50 mg/ml liposomes, relative to control): significantly enhanced wound closure

Compound: CCCCCCCCCCCCCCCC(=O)OC[C@H](COP(=O)(O)OCCC)OC(=O)CCCCCCCCCCCCCCC [dipalmitoyl-PP]
- effect of liposomes on DNA synthesis in highly proliferative keratinocytes ([4]; liposomes): no effect

Compound: CCCCC/C=C\C/C=C\CCCCCCCC(=O)OC[C@H](COP(=O)(O)OCC(O)CO)OC(=O)CCCCCCC/C=C\C/C=C\CCCCC (stereo partly drawn) [dilinoleoyl-PG]
- inhibition of proliferation in rapidly dividing keratinocytes [4]: particularly effective at inhibiting proliferation

Compound: OCC(O)CO [glycerol]
- inhibition of DNA synthesis together with elevated extracellular calcium [6]: more efficiently inhibit DNA synthesis than either agent alone
- effect on DNA synthesis ([3H]thymidine incorporation) in keratinocytes [1]: inhibited DNA synthesis
- wound closure ([5]; 0.05% glycerol and calcium (1 mM Ca2+)): significantly enhanced wound closure

Compound: palmitoyl, linoleoyl-PG
- inhibition of proliferation in rapidly dividing keratinocytes [4]: particularly effective at inhibiting proliferation

Compound: OC[C@@H](O)[C@H](O)[C@@H](O)CO [xylitol]
- effect on DNA synthesis ([3H]thymidine incorporation) in keratinocytes [1]: little or no effect

Compound: C=C1/C(=C\C=C2/CCC[C@]3(C)[C@@H]([C@H](C)CCCC(C)(C)O)CC[C@@H]23)C[C@@H](O)C[C@@H]1O [1,25-dihydroxyvitamin D3]
- radiolabeled PG formation ([2]; 250 nM, 24 hours): a decrease

Compound: Palmitoyl, arachidonyl-PG
- inhibition of proliferation in rapidly dividing keratinocytes [4]: particularly effective at inhibiting proliferation
